# Source: patent US9938273B2 (Plexxikon Inc., priority 2015, dated 2018)
# Biological target: T1, FLT3-D835Y (Homo sapiens, UniProt P36888, D835Y)
# T1 construct: purchased Invitrogen PV3967
# T1 sequence (P36888 27-993 D835Y): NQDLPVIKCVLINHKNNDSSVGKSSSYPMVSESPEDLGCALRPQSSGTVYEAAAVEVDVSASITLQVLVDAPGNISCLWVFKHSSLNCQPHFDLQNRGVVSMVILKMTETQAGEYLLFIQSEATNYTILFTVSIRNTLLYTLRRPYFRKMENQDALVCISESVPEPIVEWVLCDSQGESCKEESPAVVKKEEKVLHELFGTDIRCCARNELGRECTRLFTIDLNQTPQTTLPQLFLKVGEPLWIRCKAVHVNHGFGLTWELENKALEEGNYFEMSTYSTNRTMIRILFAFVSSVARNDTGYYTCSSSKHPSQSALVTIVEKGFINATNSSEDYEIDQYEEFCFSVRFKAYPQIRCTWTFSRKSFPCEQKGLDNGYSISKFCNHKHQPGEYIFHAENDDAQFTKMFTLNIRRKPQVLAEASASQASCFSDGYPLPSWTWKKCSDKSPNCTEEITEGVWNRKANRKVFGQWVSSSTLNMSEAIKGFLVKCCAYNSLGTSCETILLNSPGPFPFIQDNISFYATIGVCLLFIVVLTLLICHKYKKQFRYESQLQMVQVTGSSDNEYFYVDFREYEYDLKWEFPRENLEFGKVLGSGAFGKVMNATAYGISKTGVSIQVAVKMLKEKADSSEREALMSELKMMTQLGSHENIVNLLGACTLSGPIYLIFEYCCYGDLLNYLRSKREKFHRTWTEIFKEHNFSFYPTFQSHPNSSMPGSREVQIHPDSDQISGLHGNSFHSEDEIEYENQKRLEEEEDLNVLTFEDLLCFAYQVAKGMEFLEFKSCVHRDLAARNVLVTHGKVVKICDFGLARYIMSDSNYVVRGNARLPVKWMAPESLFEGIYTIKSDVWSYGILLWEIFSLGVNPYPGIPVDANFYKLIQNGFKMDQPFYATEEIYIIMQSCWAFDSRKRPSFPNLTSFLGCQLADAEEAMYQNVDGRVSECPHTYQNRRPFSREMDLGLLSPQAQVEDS
# Assay: AlphaScreen kinase assay with recombinant enzyme, FLT3-D835Y
# Format: biochemical
# Settings: 8pt, GMean
# How it was run: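 Recombinant kinase phosphorylates biotinylated poly(Glu4-Tyr) peptide (30 nM final); streptavidin donor and anti-phosphotyrosine PY20 acceptor beads (10 μg/mL final) give a 580 nm proximity signal on 680 nm excitation. IC50 determinations used a final concentration of 10 μM for FLT3-D835Y/FLT3-ITD and 100 μM for c-KIT.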
row,IC50 [µM],Structure (SMILES)
1,0.0001 to 10,"CC1(N)CCCN(C(=O)c2cccc(-c3cnc4[nH]c(-c5ccccc5)cc4c3)n2)C1 (centres unmarked) [Compound P-0082, (3-amino-3-methyl-1-piperidyl)-[6-(2-phenyl-1H-pyrrolo[2,3-b]pyridin-5-yl)-2-pyridyl]methanone]"
2,0.0001 to 10,"N[C@@H]1CN(C(=O)c2cccc(-c3cnc4[nH]c(-c5ccccc5)cc4c3)n2)CC12CC2 [Compound P-0083, [(7S)-7-amino-5-azaspiro[2.4]heptan-5-yl]-[6-(2-phenyl-1H-pyrrolo[2,3-b]pyridin-5-yl)-2-pyridyl]methanone]"
3,0.0001 to 10,"CNC1CCN(Cc2cccc(-c3cnc4[nH]c(-c5ccccc5)cc4c3)n2)C1 (centres unmarked) [Compound P-0087, N-methyl-1-[[6-(2-phenyl-1H-pyrrolo[2,3-b]pyridin-5-yl)-2-pyridyl]methyl]pyrrolidin-3-amine]"
4,50 to 100,"O=C(c1cccc(-c2cnc3[nH]c(-c4ccccc4)cc3c2)n1)N1CCC(F)(F)CC1 [Compound P-0089, (4,4-difluoro-1-piperidyl)-[6-(2-phenyl-1H-pyrrolo[2,3-b]pyridin-5-yl)-2-pyridyl]methanone]"
5,0.0001 to 10,"COC(=O)C1(C)CCN(C(=O)c2cccc(-c3cnc4[nH]c(-c5ccccc5)cc4c3)n2)CC1 [Compound P-0092, methyl 4-methyl-1-[6-(2-phenyl-1H-pyrrolo[2,3-b]pyridin-5-yl)pyridine-2-carbonyl]piperidine-4-carboxylate]"
